Key:
loricrin [1] = assay: Synthesis of loricrin by Western Blot on normal human keratinocytes in a single layer; type: cell-based; conditions: for effect on the synthesis of human keratinocyte loricrin in a single layer: human keratinocytes in a single layer
Method: The test is done on normal human keratinocytes, according to the operating procedure described in Item A.II of the part on the evaluation of the cosmetic effectiveness.
It was accomplished by Western Blot on normal human keratinocytes that are isolated from foreskins, according to the operating procedure described below.
On D0, the human keratinocytes are inoculated and then incubated at 37° C.
The cells are then incubated at 37° C.
On D7, the cellular extracts are recovered, and the Western Blot metering is carried out.

loricrin [2] = assay: Synthesis of loricrin on reconstructed epidermis (immunohistological marking, image analysis); type: cell-based, human; conditions: for Synthesis of Loricrin: D18, untreated control 100%; for synthesis of loricrin relative to the untreated control: mecamylamine 1,000 μM, nicotine 500 μM
Method: (§1) The procedure used to validate the agonist and the antagonist of the nAChRs is illustrated below for the synthesis of loricrin on reconstructed epidermis. It also applies to the synthesis of E-cadherin on reconstructed epidermis. The inserts comprising the epidermis under construction are placed in a culture medium containing: • 1,000 μM of mecamylamine (reversible antagonist of the nACHRs) or • 500 μM of nicotine (reversible agonist of the nACHRs).
On D18, the inserts are recovered, fixed, dehydrated, and incorporated into paraffin.
Cuts are made, and then an immunohistological marking of the loricrin is done.
Visualization is then done on a microscope coupled to an image analysis system. The intensity of the fluorescence (green color) is proportional to the synthesis of loricrin.
(§2) On D0, the human keratinocytes are cultivated in a culture medium and then inoculated on an insert.
(§3) On D13 and/or D18, the inserts are recovered, fixed, dehydrated, and incorporated into paraffin.
(§4) Next, cuts are made, and then an immunohistological marking of the loricrin or the E-cadherin is done.
(§5) The display is then produced on a microscope coupled to an image analysis system. The intensity of the fluorescence (green color) is proportional to the synthesis of loricrin or cadherin.

E-cadherin = assay: Synthesis of E-cadherin on reconstructed epidermis (immunohistological marking, image analysis); type: cell-based, human
Method: as §1, §2, §3, §4, §5

| Compound | Ratio of Loricrin/Control (%) (loricrin [1]) | effect on the synthesis of human keratinocyte loricrin in a single layer (loricrin [1]) | Synthesis of Loricrin (loricrin [2]; 500 μM) [%] | synthesis of loricrin relative to the untreated control (loricrin [2]) | effect on the synthesis of E-cadherin on reconstructed epidermis (E-cadherin) | Change in loricrin synthesis versus control (loricrin [1]; 350 μM, normal human keratinocytes, Western Blot on D7) [%] | Synthesis of Loricrin (loricrin [2]; 1,000 μM) [%] |
| --- | --- | --- | --- | --- | --- | --- | --- |
| CN1CCCC1c1cccnc1 (stereo not shown) [Nicotine, nicotine] | +51% | stimulating effect | 113 | increased | stimulating effect |  |  |
| CNC1(C)C2CCC(C2)C1(C)C (stereo not shown) [Mecamylamine, mecamylamine] |  | inhibiting effect |  | reduced | inhibiting effect | −57 | 53 |

— patent US20140220069A1, “ACTIVE INGREDIENT DERIVED FROM TORULASPORA DELBRUECKII AND COSMETIC USE FOR IMPROVING AND/OR REPAIRING THE BARRIER FUNCTION OF THE SKIN” (SOCIETE INDUSTRIELLE LIMOUSINE D'APPLICATION BIOLOGIQUE, priority 2011, published 2014)
